Patent US20250170085A1, “TOPICAL FORMULATION TO DECREASE SKIN INFLAMMATION OR REDNESS” (University of Pittsburgh - Of the Commonwealth System of …, priority 2022, published 2025)

Columns and labels:
[1] = Patient-reported overall discomfort (eye irritation, cold sensation) after facial application of 5% w/w β-alanine cream with menthol; type: in vivo, human; settings: for overall discomfort, scale 0 to 10: attributable to eye irritation and an unpleasant cold sensation
Text: (§1) FIGS. 2A and 2B show subjective patient-reported scoring for itch (FIG. 2A) and overall discomfort (FIG. 2B) of facially applied cream containing 5% w/w β-alanine and the indicated concentration of menthol. Each of the four formulations (0%, 0.5%, 1.0%, and 1.5% w/w menthol with 5% w/w f-alanine) were sequentially applied to different locations of a patient's cheek skin by a physician. Scoring was on a scale of 0 to 10, with 0 being no itch or discomfort and 10 being maximum itch or discomfort. Each symbol represents an individual patient (n=10). Bar height indicates the average value. Error bars represent +/−SEM. * P<0.05; ** P<0.01. P-values were calculated using a nonparametric ANOVA Kruskai-Wallis test.
(§2) A cohort of patients without inflammatory skin conditions (n=10) was given four different topical formulations for facial application. All four formulations contained 5% w/w β-alanine in Versapro® Cream (see, e.g., Example 1), however, each contained a different concentration of menthol (0.0%, 0.5%, 1.0%, and 1.5% w/w). A physician sequentially applied 0.1 ml of each formulation to distinct areas of the cheek with a 10 minute pause between each application. Patients were asked to rate the degree of itching and overall discomfort on a scale of 0 (no itching) to 10 (maximal itching) over the course of 5 minutes. The same process was repeated for the 0.5%, 1.0% and 1.5% w/w menthol containing formulations.

[2] = Patient-reported itching after facial application of 5% w/w β-alanine cream with menthol; type: in vivo, human
Text: as §1
as §2, with “The same process was repeated for the 0.5%, 1.0% and 1.5% w/w menthol containing formulations.” left out

[3] = Method: The four β-alanine formulations (0%, 2.5%, 5.0%, and 7.5% w/w β-alanine) were sequentially applied to a different location of each patient's cheek skin by a physician. Subjective scoring for itch (0 (none) to 10 (maximum itch)) was recorded over a 5-minute period. Symbols on the bar graph represent individual patients (n=16). Bar height indicates the average value. […] P-values were calculated using a nonparametric ANOVA Kruskai-Wallis test.
β-alanine powder (GNC, #369898) was mixed into Versapro® Cream at a concentration of 0%, 2.5%, 5.0% or 7.5% w/w. The ingredients of Versapro® Cream include water, aloe Barbadensis leaf juice, cyclopentasiloxane, disodium EDTA, emulsifying wax NF, ethylhexglyglycering, ethylhexyl stearate, phenoxyethanol, sorbitol, and tocopheryl acetate. The mixture was agitated until homogenous.
A cohort of patients without skin disease were selected for testing (n=16). Each patient had 0.1 ml of cream applied to cheek skin by a physician. Over the course of 5 minutes, the patients reported the intensity of pruritus (itching) on a scale of 0 (no itching) to 10 (maximal itching). The process was repeated for all four formulations (0%, 2.5%, 5.0% or 7.5% w/w β-alanine) using different areas of cheek skin. The efficacy of topical J3-alanine was determined based on the development of pruritus.

[4] = 0.5% w/w menthol in 5% w/w β-alanine cream

Row | SMILES | eye discomfort [1, 4] | overall discomfort, scale 0 to 10 ([1]; 1.0% w/w menthol in 5% w/w β-alanine cream) | overall discomfort, scale 0 to 10 ([1]; 1.5% w/w menthol in 5% w/w β-alanine cream) | intensity of itching [2, 4] | degree of itching, scale 0 to 10 ([2]; all concentrations of menthol (0.5%, 1.0%, 1.5% w/w) in 5% w/w β-alanine Versapro Cream, 0.1 ml on cheek, over 5 minutes, n=10) | intensity of pruritus (itching), scale 0 to 10 ([3]; 2.5% w/w β-alanine in Versapro Cream, 0.1 ml on cheek skin, over 5 minutes, patients without skin disease (n=16)) | duration of pruritus triggered by topical cream ([3]; topical β-alanine cream on cheek skin)
1 | CC1CCC(C(C)C)C(O)C1 (stereo not shown) [menthol, 5-methyl-2-(propan-2-yl)cyclohexan-1-ol] | without promoting eye discomfort | increased | increased | successfully decreased | notably reduced | – | –
2 | NCCC(=O)O [β-alanine, 3-aminopropanoic acid] | – | – | – | – | – | evident | less than 5 minutes
